Measurements taken from EPA's ToxRefDB 2.

What was measured:
dog [1] = details: Chronic toxicity, beagle, Oral, Feed, dose end: 12 month
rabbit = details: Prenatal developmental toxicity study; new zealand white; Oral; Gavage/Intubation; dose end: 19 GD; group: maternal; reproductive / reproductive performance / postimplantation loss / postimplantation loss + reproductive / reproductive performance / …
mouse [2] = details: Carcinogenicity, cd1, Oral, Feed, dose end: 18 month, group: systemic
dog [3] = details: Subchronic oral toxicity in nonrodent, beagle, Feed, dose end: 90 day, group: systemic
rat [4] = details: Combined chronic toxicity/carcinogenicity, fischer, Oral, Feed, dose end: 2 year, group: systemic
rat [5] = details: Multigenerational reproductive toxicity study, sprague dawley, Oral, Feed, dose end: 2 generation
rat [6] = details: Developmental neurotoxicity range-finding study; sprague dawley; Oral; Feed; dose end: 21 PND; group: cannot be grouped; systemic / in life observation / body weight / body weight + systemic / in life observation / body weight / body weight gain + systemic / in…
rat [7] = details: Subchronic oral toxicity in rodents, Feed, dose end: 90 day, group: systemic
dog [8] = details: Chronic toxicity, beagle, Oral, Feed, dose end: 52 week, group: systemic
mouse [9] = details: Carcinogenicity; cd1; Oral; Feed; dose end: 104 week; group: systemic; systemic / in life observation / clinical signs / hyperactivity
dog [10] = details: Subchronic oral toxicity in nonrodent, beagle, Feed, dose end: 90 day, group: systemic, systemic / in life observation / clinical signs / defecation (diarrhea) + systemic / in life observation / clinical signs / emesis + …
[11] = group: reproductive, reproductive / reproductive performance / estrous cycle / periodicity
[12] = group: systemic, systemic / in life observation / body weight / body weight + systemic / in life observation / body weight / body weight gain + systemic / in…
[13] = group: systemic, systemic / pathology microscopic / uterus / estrus
[14] = systemic / organ weight / liver / nos + systemic / pathology microscopic / liver / eosinophilic focus + systemic / pathology microscopic / …
[15] = systemic / in life observation / body weight / body weight gain
[16] = systemic / in life observation / body weight / body weight gain + systemic / in life observation / food consumption / food consumption
[17] = systemic / pathology gross / stomach / discolored + systemic / pathology gross / stomach / foci + systemic / pathology gross / stomach / …
[18] = group: offspring, systemic / in life observation / body weight / offspring (pup) weight
[19] = group: offspring, systemic / in life observation / body weight / offspring (pup) weight + developmental / offspring survival late / lactation index / …
[20] = group: parental, systemic / in life observation / food consumption / food consumption + systemic / in life observation / body weight / body weight + systemic…
[21] = group: reproductive, reproductive / offspring survival early / birth index / live birth index
[22] = systemic / clinical chemistry / urea nitrogen / urea + systemic / clinical chemistry / alkaline phosphatase (alp/alk) / alkaline phosphatase…
[23] = systemic / in life observation / clinical signs / tremors + systemic / clinical chemistry / glucose / glucose + systemic / in life …

CC(C)N(C(=O)CCl)c1ccccc1 [Propachlor]
LEL (dog [1]; [11]): 0.625 mg/kg/day | LOAEL (dog [1]; [11]): > 25 mg/kg/day | NEL (dog [1]; [11]): < 0.625 mg/kg/day | NOAEL (dog [1]; [11]): ≥ 25 mg/kg/day | LOAEL (dog [1]; [12]): 25 mg/kg/day | NOAEL (dog [1]; [12]): 6.25 mg/kg/day | LEL (dog [1]; [13]): 0.625 mg/kg/day | NEL (dog [1]; [13]): < 0.625 mg/kg/day | LEL (rabbit): 50 mg/kg/day | LOAEL (rabbit): 50 mg/kg/day | NEL (rabbit): 5 mg/kg/day | NOAEL (rabbit): 5 mg/kg/day | LEL (mouse [2]; systemic / organ weight / liver / nos): 75 mg/kg/day | NEL (mouse [2]; systemic / organ weight / liver / nos + systemic / organ weight / kidney / nos + systemic / pathology microscopic / liver / hypertrophy): 14.6 mg/kg/day | LOAEL (mouse [2]; [14]): 223 mg/kg/day | NOAEL (mouse [2]; [14]): 75 mg/kg/day | LEL (dog [3]; [15]): 2.5 mg/kg/day | NEL (dog [3]; [15]): < 2.5 mg/kg/day | LOAEL (dog [3]; [16]): > 37.5 mg/kg/day | NOAEL (dog [3]; [16]): ≥ 37.5 mg/kg/day | LEL (rat [4]; systemic / clinical chemistry / aspartate aminotransferase (ast/sgot) / aspartate aminotransferase (ast/sgot)): 16.1 mg/kg/day | LOAEL (rat [4]; [17]): 125 mg/kg/day | NEL (rat [4]; [17]): 5.4 mg/kg/day | NOAEL (rat [4]; [17]): 53.6 mg/kg/day | LEL (rat [5]; [18]): 69.6 mg/kg/day | LOAEL (rat [5]; [18]): 69.6 mg/kg/day | NEL (rat [5]; [19]): 7.1 mg/kg/day | NOAEL (rat [5]; [19]): 7.1 mg/kg/day | LEL (rat [5]; [20]): 69.6 mg/kg/day | LOAEL (rat [5]; [20]): 69.6 mg/kg/day | NEL (rat [5]; [20]): 7.1 mg/kg/day | NOAEL (rat [5]; [20]): 7.1 mg/kg/day | LEL (rat [5]; [21]): 141 mg/kg/day | LOAEL (rat [5]; [21]): > 141 mg/kg/day | NOAEL (rat [5]; [21]): ≥ 141 mg/kg/day

CC1(C)C(C(=O)OC(C#N)c2cccc(Oc3ccccc3)c2)C1(C)C (stereo not given) [Fenpropathrin]
LEL (rat [6]): 27 mg/kg/day | LOAEL (rat [6]): 27 mg/kg/day | NEL (rat [6]): 13 mg/kg/day | NOAEL (rat [6]): 13 mg/kg/day | LOAEL (rat [7]; systemic / clinical chemistry / alkaline phosphatase (alp/alk) / alkaline phosphatase (alp/alk) + systemic / hematology / blood clotting / …): 30 mg/kg/day | LEL (rat [7]; systemic / clinical chemistry / urea nitrogen / urea): 5 mg/kg/day | NEL (rat [7]; [22]): 1.5 mg/kg/day | NOAEL (rat [7]; [22]): 15 mg/kg/day | LOAEL (dog [8]; systemic / in life observation / clinical signs / tremors): 6.25 mg/kg/day | LEL (dog [8]; systemic / in life observation / clinical signs / tremors + systemic / clinical chemistry / glucose / glucose): 6.25 mg/kg/day | NEL (dog [8]; [23]): 2.5 mg/kg/day | NOAEL (dog [8]; [23]): 2.5 mg/kg/day | LEL (mouse [9]): 65.2 mg/kg/day | LOAEL (mouse [9]): > 65.2 mg/kg/day | NEL (mouse [9]): 16.2 mg/kg/day | NOAEL (mouse [9]): ≥ 65.2 mg/kg/day | LEL (dog [10]): 6.25 mg/kg/day | LOAEL (dog [10]): 6.25 mg/kg/day | NEL (dog [10]): < 6.25 mg/kg/day | NOAEL (dog [10]): < 6.25 mg/kg/day
